Data: ChEMBL document CHEMBL5523720, “Identification of novel GSPT1 degraders by virtual screening and bioassay” (Eur J Med Chem, 2024)
The source made the active and inactive calls. No cut-off for these calls is given here.

Legend:
U-266 = experiment: Antiproliferative activity against human U-266 cells incubated for 48 hrs by MTS assay; format: functional, cell-based; conditions: U-266, 48 h
K562 = experiment: Antiproliferative activity against human K562 cells incubated for 48 hrs by MTS assay; format: functional, cell-based; conditions: K562, 48 h
U-937 [1] = experiment: Antiproliferative activity against human U-937 cells incubated for 48 hrs by MTS assay; format: functional, cell-based; conditions: U-937, 48 h
OCI-AML2 [2] = experiment: Antiproliferative activity against human OCI-AML2 cells incubated for 48 hrs by MTS assay; format: functional, cell-based; conditions: OCI-AML2, 48 h
[3] = biological target: Protein cereblon (Homo sapiens) (UniProt Q96SW2); experiment: Binding affinity to recombinant CRBN (unknown origin) by SPR assay
Chain of Protein cereblon (Homo sapiens) (Q96SW2 whole entry): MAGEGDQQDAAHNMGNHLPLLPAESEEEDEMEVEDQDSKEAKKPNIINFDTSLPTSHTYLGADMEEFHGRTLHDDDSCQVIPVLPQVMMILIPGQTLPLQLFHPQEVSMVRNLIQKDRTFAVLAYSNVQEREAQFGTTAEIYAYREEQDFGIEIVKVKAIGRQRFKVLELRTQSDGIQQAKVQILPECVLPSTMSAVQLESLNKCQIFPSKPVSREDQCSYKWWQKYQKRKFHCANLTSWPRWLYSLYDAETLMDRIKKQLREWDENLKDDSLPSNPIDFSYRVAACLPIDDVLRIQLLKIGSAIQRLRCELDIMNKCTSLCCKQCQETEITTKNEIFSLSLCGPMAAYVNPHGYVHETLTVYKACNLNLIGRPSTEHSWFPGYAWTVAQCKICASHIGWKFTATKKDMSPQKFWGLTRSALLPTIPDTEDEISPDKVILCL

[4] = biological target: Eukaryotic peptide chain release factor GTP-binding subunit ERF3A (Homo sapiens) (UniProt P15170); experiment: Induction of GSPT1 degradation in human HEK293FT cells at 20 to 40 uM pretreated with MLN4924 for 1 hr followed by compound addition and measured after 8 hrs by Western blotting analysis; format: cell-based; conditions: dose 20-40 µM
Chain of Eukaryotic peptide chain release factor GTP-binding subunit ERF3A (Homo sapiens) (P15170 whole entry): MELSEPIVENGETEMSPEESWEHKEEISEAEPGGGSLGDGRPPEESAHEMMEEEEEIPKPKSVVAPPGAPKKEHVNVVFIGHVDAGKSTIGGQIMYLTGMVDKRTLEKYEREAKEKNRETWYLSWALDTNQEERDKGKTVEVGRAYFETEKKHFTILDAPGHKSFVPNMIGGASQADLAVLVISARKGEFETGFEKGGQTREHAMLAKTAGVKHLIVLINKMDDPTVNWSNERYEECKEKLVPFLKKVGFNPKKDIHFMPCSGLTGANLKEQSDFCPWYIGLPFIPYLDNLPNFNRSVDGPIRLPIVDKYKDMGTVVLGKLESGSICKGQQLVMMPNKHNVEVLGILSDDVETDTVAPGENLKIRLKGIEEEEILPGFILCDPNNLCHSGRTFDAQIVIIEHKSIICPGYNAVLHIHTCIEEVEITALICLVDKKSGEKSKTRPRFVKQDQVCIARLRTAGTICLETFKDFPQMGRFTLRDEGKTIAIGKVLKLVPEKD

U-937 [5] = experiment: Antiproliferative activity against CRBN knockdown human U-937 cells incubated for 48 hrs by MTS assay; format: functional, cell-based
[6] = biological target: Eukaryotic peptide chain release factor GTP-binding subunit ERF3A (Homo sapiens) (UniProt P15170); experiment: Induction of GSPT1 degradation in human U-937 cells with CHX pretreatment by Western blotting analysis; format: cell-based; conditions: dose 20-40 µM
U-937 [7] = experiment: Downregulation of c-Myc level in human U-937 cells at 5 to 20 uM incubated for 24 hrs by Western blotting assay; format: functional, cell-based; conditions: dose 5-20 µM
[8] = biological target: T1, Protein cereblon/Eukaryotic peptide chain release factor GTP-binding subunit ERF3A (Homo sapiens) (UniProt Q96SW2+P15170); experiment: Induction of CRBN to GSPT1 protein-protein interaction in human U-937 cells at 20 uM pretreated with MG132 for 1 hr followed by compound addition and measured after 8 hrs by immunoprecipitation assay; format: cell-based; conditions: filed as activator
T1 sequence (P15170 whole entry, looked up): as the sequence (P15170 whole entry) above
T1 sequence (Q96SW2 whole entry, looked up): as the sequence (Q96SW2 whole entry) above

OCI-AML2 [9] = experiment: Induction of cell cycle arrest in human OCI-AML2 cells assessed as increase in G1 phase cells at 5 to 20 uM incubated for 24 hrs by propidium iodide staining based flow cytometry analysis; format: functional; conditions: dose 5-20 µM
[10] = biological target: Eukaryotic peptide chain release factor GTP-binding subunit ERF3A (Homo sapiens) (UniProt P15170); experiment: Induction of GSPT1 degradation in human OCI-AML2 cells at 20 to 40 uM pretreated with MLN4924 followed by compound addition and measured after 8 hrs by Western blotting analysis; format: cell-based; conditions: dose 20-40 µM
U-937 [11] = experiment: Downregulation of IKZF1 in human U-937 cells at high concentration incubated for 8 hrs by Western blotting analysis; format: functional, cell-based
OCI-AML2 [12] = experiment: Induction of cell cycle arrest in human OCI-AML2 cells assessed as decrease in M phase cells at 5 to 20 uM incubated for 24 hrs by propidium iodide staining based flow cytometry analysis; format: functional; conditions: dose 5-20 µM
U-937 [13] = experiment: Upregulation of PARP cleavage in human U-937 cells at 5 to 20 uM incubated for 24 hrs by Western blotting assay; format: functional, cell-based; conditions: dose 5-20 µM
U-937 [14] = experiment: Induction of cell cycle arrest in human U-937 cells assessed as decrease in M phase cells at 5 to 20 uM incubated for 24 hrs by propidium iodide staining based flow cytometry analysis; format: functional; conditions: dose 5-20 µM
OCI-AML2 [15] = experiment: Downregulation of GSPT1 in human OCI-AML2 cells at high concentration incubated for 8 hrs by Western blotting analysis; format: functional, cell-based
OCI-AML2 [16] = experiment: Upregulation of p21 level in human OCI-AML2 cells at 5 to 20 uM incubated for 24 hrs by Western blotting assay; format: functional, cell-based; conditions: dose 5-20 µM
OCI-AML2 [17] = experiment: Downregulation of IKZF1 in human OCI-AML2 cells at high concentration incubated for 8 hrs by Western blotting analysis; format: functional, cell-based
OCI-AML2 [18] = experiment: Upregulation of PARP cleavage in human OCI-AML2 cells at 5 to 20 uM incubated for 24 hrs by Western blotting assay; format: functional, cell-based; conditions: dose 5-20 µM
[19] = biological target: Eukaryotic peptide chain release factor GTP-binding subunit ERF3A (Homo sapiens) (UniProt P15170); experiment: Induction of GSPT1 degradation in human U-937 cells at 20 to 40 uM pretreated with MG132 for 1 hr followed by compound addition and measured after 8 hrs by Western blotting analysis; format: cell-based; conditions: dose 20-40 µM
U-937 [20] = experiment: Upregulation of caspase 9 level in human U-937 cells at 5 to 20 uM incubated for 24 hrs by Western blotting assay; format: functional, cell-based; conditions: dose 5-20 µM
U-937 [21] = experiment: Induction of apoptosis in human U-937 cells assessed as increase in number of apoptotic cells at 5 to 20 uM incubated for 48 hrs by Annexin V-FITC/PI staining based flow cytometry analysis; format: functional, cell-based; conditions: dose 5-20 µM
OCI-AML2 [22] = experiment: Downregulation of CK1alpha in human OCI-AML2 cells at high concentration incubated for 8 hrs by Western blotting analysis; format: functional, cell-based
[23] = biological target: Eukaryotic peptide chain release factor GTP-binding subunit ERF3A (Homo sapiens) (UniProt P15170); experiment: Induction of GSPT1 degradation in human U-937 cells at 20 to 40 uM pretreated with MLN4924 followed by compound addition and measured after 8 hrs by Western blotting analysis; format: cell-based; conditions: dose 20-40 µM
U-937 [24] = experiment: Induction of cell cycle arrest in human U-937 cells assessed as increase in G1 phase cells at 5 to 20 uM incubated for 24 hrs by propidium iodide staining based flow cytometry analysis; format: functional; conditions: dose 5-20 µM
OCI-AML2 [25] = experiment: Induction of apoptosis in human OCI-AML2 cells assessed as increase in number of apoptotic cells at 5 to 20 uM incubated for 48 hrs by Annexin V-FITC/PI staining based flow cytometry analysis; format: functional, cell-based; conditions: dose 5-20 µM
OCI-AML2 [26] = experiment: Antiproliferative activity against GSPT1 knockout human OCI-AML2 cells incubated for 48 hrs by MTS assay; format: functional, cell-based
OCI-AML2 [27] = experiment: Downregulation of c-Myc level in human OCI-AML2 cells at 5 to 20 uM incubated for 24 hrs by Western blotting assay; format: functional, cell-based; conditions: dose 5-20 µM
[28] = biological target: T1, Protein cereblon/Eukaryotic peptide chain release factor GTP-binding subunit ERF3A (Homo sapiens); experiment: Binding affinity to CRBN/GSPT1 in human U-937 cells assessed as increase in protein stabilization incubated for 6 hrs by CETSA; format: cell-based; conditions: filed as activator
U-937 [29] = experiment: Downregulation of CK1alpha in human U-937 cells at high concentration incubated for 8 hrs by Western blotting analysis; format: functional, cell-based
U-937 [30] = experiment: Upregulation of p21 level in human U-937 cells at 5 to 20 uM incubated for 24 hrs by Western blotting assay; format: functional, cell-based; conditions: dose 5-20 µM
OCI-AML2 [31] = experiment: Upregulation of caspase 9 level in human OCI-AML2 cells at 5 to 20 uM incubated for 24 hrs by Western blotting assay; format: functional, cell-based; conditions: dose 5-20 µM
U-937 [32] = experiment: Downregulation of GSPT1 in human U-937 cells at high concentration incubated for 8 hrs by Western blotting analysis; format: functional, cell-based
[33] = biological target: Eukaryotic peptide chain release factor GTP-binding subunit ERF3A (Homo sapiens) (UniProt P15170); experiment: Induction of GSPT1 degradation in human OCI-AML2 cells at 1 uM incubated for 8 hrs by Western blotting analysis; format: cell-based
[34] = biological target: T1, Protein cereblon/Eukaryotic peptide chain release factor GTP-binding subunit ERF3A (Homo sapiens); experiment: Induction of CRBN to GSPT1 protein-protein interaction in human U-937 cells at 1 uM pretreated with MG132 for 1 hr followed by compound addition and measured after 8 hrs by immunoprecipitation assay; format: cell-based; conditions: filed as activator
[35] = biological target: Eukaryotic peptide chain release factor GTP-binding subunit ERF3A (Homo sapiens) (UniProt P15170); experiment: Induction of GSPT1 degradation in human U-937 cells at 1 uM incubated for 8 hrs by Western blotting analysis; format: cell-based

SMILES: Cc1nc2ccccc2cc1C(=O)N/N=C/c1ccccc1O
- IC50 (U-266): 6.75 µM
- IC50 (K562): > 40 µM
- IC50 (U-937 [1]): 6.53 µM
- IC50 (OCI-AML2 [2]): 8.98 µM

SMILES: Cc1nc2ccccc2cc1C(=O)N/N=C/c1cccc(Cl)c1
- IC50 (U-266): > 40 µM
- IC50 (K562): > 40 µM
- IC50 (U-937 [1]): > 40 µM
- IC50 (OCI-AML2 [2]): > 40 µM

SMILES: Cc1nc2c(C)cccc2cc1C(=O)N/N=C/c1cccc([N+](=O)[O-])c1
- IC50 (U-266): 7.13 µM
- IC50 (K562): 12.8 µM
- IC50 (U-937 [1]): 9.9 µM
- IC50 (OCI-AML2 [2]): 2.68 µM

SMILES: Cc1ccc2nc(C)c(C(=O)N/N=C/c3cccnc3)cc2c1
- IC50 (U-266): > 40 µM
- IC50 (K562): > 40 µM
- IC50 (U-937 [1]): > 40 µM
- IC50 (OCI-AML2 [2]): > 40 µM

SMILES: Cc1nc2ccccc2cc1C(=O)N/N=C/c1cccc([N+](=O)[O-])c1
- IC50 (U-266): > 40 µM
- IC50 (K562): > 40 µM
- IC50 (U-937 [1]): > 40 µM
- IC50 (OCI-AML2 [2]): > 40 µM

SMILES: Cc1ccc2nc(C)c(C(=O)N/N=C/c3cccc(Cl)c3)cc2c1
- IC50 (U-266): > 40 µM
- IC50 (K562): > 40 µM
- IC50 (U-937 [1]): > 40 µM
- IC50 (OCI-AML2 [2]): > 40 µM

SMILES: Cc1nc2c(C)cccc2cc1C(=O)N/N=C/c1ccccc1O
- Activity [3]: Active
- Activity [4]: inactive
- Activity (U-937 [5]): inactive
- Activity [6]: Dose-Dependent Effect
- Activity (U-937 [7]): Active
- Activity [8]: Active
- Activity (OCI-AML2 [9]): Active
- Activity [10]: inactive
- Activity (U-937 [11]): Active
- Activity (OCI-AML2 [12]): Active
- Activity (U-937 [13]): Active
- Activity (U-937 [14]): Active
- Activity (OCI-AML2 [15]): Active
- Activity (OCI-AML2 [16]): Active
- Activity (OCI-AML2 [17]): Active
- IC50 (U-266): 3.8 µM
- Activity (OCI-AML2 [18]): Active
- Activity [19]: inactive
- IC50 (K562): 16.7 µM
- Activity (U-937 [20]): Active
- Activity (U-937 [21]): Active
- IC50 (U-937 [1]): 4.49 µM
- Activity (OCI-AML2 [22]): Active
- Activity [23]: inactive
- Activity (U-937 [24]): Active
- Activity (OCI-AML2 [25]): Active
- Activity (OCI-AML2 [26]): inactive
- Activity (OCI-AML2 [27]): Active
- Activity [28]: Active
- Activity (U-937 [29]): Active
- Activity (U-937 [30]): Active
- Activity (OCI-AML2 [31]): Active
- Activity (U-937 [32]): Active
- IC50 (OCI-AML2 [2]): 2.64 µM

SMILES: Cc1nc2c(C)cccc2cc1C(=O)N/N=C/c1ccccc1Cl
- IC50 (U-266): 3.93 µM
- IC50 (K562): > 40 µM
- IC50 (U-937 [1]): 6.89 µM
- IC50 (OCI-AML2 [2]): 2.66 µM

SMILES: O=C1CCC(N2Cc3cc(CNC(=O)C(F)(F)c4ccc(Cl)cc4)ccc3C2=O)C(=O)N1 (centres undefined)
- Activity [33]: Active
- Activity [34]: Active
- IC50 (U-266): 0.04 µM
- IC50 (K562): > 40 µM
- IC50 (U-937 [1]): < 0.032 µM
- Activity [35]: Active
- IC50 (OCI-AML2 [2]): 0.01 µM
